Active and inactive are the calls of the source. No cut-off for these calls is given here.
What was measured:
[1] = target: NT-3 growth factor receptor (Homo sapiens) (UniProt Q16288); assay: Binding affinity to TrkC (unknown origin) expressed in mouse NIH3T3 cell lysate at 10 uM preincubated for 3 hrs in dark followed by irradiation with LED UV flashlight at 365 nm for 30 mins by biotin-azide/neutravidin agarose gel based Western blot analysis
[2] = target: NT-3 growth factor receptor (Homo sapiens) (UniProt Q16288); assay: Binding affinity to recombinant TrkC (unknown origin) at 10 to 25 uM incubated for 1 hr in dark in presence of azide fluor 488 staining by SDS-PAGE based fluorescence imaging
[3] = target: NT-3 growth factor receptor (Homo sapiens) (UniProt Q16288); assay: Binding affinity to recombinant TrkC (unknown origin) at 10 to 25 uM preincubated for 1 hr in dark followed by irradiation with LED UV flashlight at 365 nm for 30 mins in presence of azide fluor 488 staining by SDS-PAGE based fluorescence imaging
[4] = target: NT-3 growth factor receptor (Homo sapiens) (UniProt Q16288); assay: Binding affinity to recombinant TrkC (unknown origin) at 10 to 25 uM preincubated for 1 hr in dark followed by irradiation with LED UV flashlight at 365 nm for 30 mins in presence of 80 fold excess of (2S,2'S)-1,1'-((6-(4-(benzyl(prop-2-yn-1-yl)amino)piperidin-1-yl)-1,3,5-triazine-2,4-diyl)bis(piperazine-4,1-diyl))bis(2-(4-((1S,2S)-1-amino-2-methylbutyl)-1H-1,2,3-triazol-1-yl)-3-(4-hydroxyphenyl)propan-1-one) by SDS-PAGE based fluorescence imaging
[5] = target: Carbonic anhydrase 9 (Homo sapiens) (UniProt Q16790); assay: (§1) Binding affinity to carbonic anhydrase 9 in human MDA-MB-231 cell lysate at 5 uM preincubated for 3 hrs in dark followed by irradiation with LED UV flashlight at 365 nm for 30 mins by biotin-azide/neutravidin agarose gel based Western blot analysis
[6] = target: Carbonic anhydrase 9 (Homo sapiens) (UniProt Q16790); assay: Binding affinity to recombinant carbonic anhydrase 9 (unknown origin) at 5 to 10 uM preincubated for 2 hrs in dark followed by irradiation with LED UV flashlight at 365 nm for 30 mins in presence of 50 fold excess of 4-(2-((4-(4-(benzyl(prop-2-yn-1-yl)amino)piperidin-1-yl)-6-chloro-1,3,5-triazin-2-yl)amino)ethyl)benzenesulfonamide by SDS-PAGE based fluorescence imaging
[7] = target: Carbonic anhydrase 9 (Homo sapiens) (UniProt Q16790); assay: Binding affinity to recombinant carbonic anhydrase 9 (unknown origin) at 5 to 10 uM preincubated for 2 hrs in dark followed by irradiation with LED UV flashlight at 365 nm for 30 mins in presence of azide fluor 488 staining by SDS-PAGE based fluorescence imaging
[8] = target: Carbonic anhydrase 9 (Homo sapiens) (UniProt Q16790); assay: as §1, with “mins in presence of 4-(2-((4-(4-(benzyl(prop-2-yn-1-yl)amino)piperidin-1-yl)-6-chloro-1,3,5-triazin-2-yl)amino)ethyl)benzenesulfonamide” for “mins”
[9] = target: Carbonic anhydrase 9 (Homo sapiens) (UniProt Q16790); assay: Binding affinity to recombinant carbonic anhydrase 9 (unknown origin) at 5 to 10 uM preincubated for 2 hrs in dark followed by irradiation with LED UV flashlight at 365 nm for 30 mins in presence of coomassie brilliant blue G250 staining by SDS-PAGE based fluorescence imaging

NT-3 growth factor receptor (Homo sapiens), sequence (Q16288 32-839 limits assumed): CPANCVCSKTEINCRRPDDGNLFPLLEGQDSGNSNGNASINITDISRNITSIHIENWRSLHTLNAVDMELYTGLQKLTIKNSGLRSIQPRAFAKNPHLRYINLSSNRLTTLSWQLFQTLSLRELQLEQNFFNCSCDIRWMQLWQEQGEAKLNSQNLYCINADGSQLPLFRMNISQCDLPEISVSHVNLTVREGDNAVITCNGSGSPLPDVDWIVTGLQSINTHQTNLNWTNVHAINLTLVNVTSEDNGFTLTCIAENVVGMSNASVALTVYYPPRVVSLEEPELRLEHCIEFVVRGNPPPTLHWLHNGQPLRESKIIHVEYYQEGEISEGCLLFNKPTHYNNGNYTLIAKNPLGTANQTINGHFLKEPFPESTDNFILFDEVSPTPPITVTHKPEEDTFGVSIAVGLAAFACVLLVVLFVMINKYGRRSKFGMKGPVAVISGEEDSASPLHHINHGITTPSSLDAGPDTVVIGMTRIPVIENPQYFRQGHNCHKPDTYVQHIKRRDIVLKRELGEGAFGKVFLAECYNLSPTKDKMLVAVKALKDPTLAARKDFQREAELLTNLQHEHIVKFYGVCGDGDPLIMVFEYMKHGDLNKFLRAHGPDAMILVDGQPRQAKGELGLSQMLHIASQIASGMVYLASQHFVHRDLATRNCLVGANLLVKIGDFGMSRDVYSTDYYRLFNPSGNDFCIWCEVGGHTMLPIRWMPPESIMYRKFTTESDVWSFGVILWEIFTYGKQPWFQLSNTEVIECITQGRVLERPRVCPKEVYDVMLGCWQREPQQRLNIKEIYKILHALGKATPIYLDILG

SMILES | Activity [1] | Activity [2] | Activity [3] | Activity [4] | Activity [5] | Activity [6] | Activity [7] | Activity [8] | Activity [9]
C#CCN(Cc1ccc(C2(C(F)(F)F)N=N2)cc1)C1CCN(c2nc(N3CCN(C(=O)[C@H](Cc4ccc(O)cc4)n4cc([C@@H](N)[C@@H](C)CC)nn4)CC3)nc(N3CCN(C(=O)[C@H](Cc4ccc(O)cc4)n4cc([C@@H](N)[C@@H](C)CC)nn4)CC3)n2)CC1 | Active | inactive | Active | inactive | – | – | – | – | –
C#CCN(Cc1ccc(C2(C(F)(F)F)N=N2)cc1)C1CCN(c2nc(Cl)nc(NCCc3ccc(S(N)(=O)=O)cc3)n2)CC1 | – | – | – | – | Active | inactive | Active | inactive | Active

Source: ChEMBL document CHEMBL4138307, “Click-Addressable Cassette for Photoaffinity Labeling” (ACS Med Chem Lett, 2018)
